Measurements as given in PMC11673932, “A Novel Ginsenoside-Transforming α-L-Rhamnosidase from Bifidobacterium: Screening, Characterization and Application” (Biomolecules, 2024).

Columns and labels:
BD890 (Bd890, BdRham) = target: T1, BD890 (Bd890, BdRham) (Bifidobacterium dentium, UniProt D2Q797); assay: conversion of Re to Rg1 in PPT-type ginsenoside mixture; assay type: biochemical; conditions: cell lysate, 45 °C, Re 2.25 mg/mL in ginsenoside mixture
T1 construct: gene BDP_0161; GST-tag vector pBT7 (same expression system as C118), E. coli BL21(DE3), used as cell lysate; GH78
T1 sequence (D2Q797 1-890): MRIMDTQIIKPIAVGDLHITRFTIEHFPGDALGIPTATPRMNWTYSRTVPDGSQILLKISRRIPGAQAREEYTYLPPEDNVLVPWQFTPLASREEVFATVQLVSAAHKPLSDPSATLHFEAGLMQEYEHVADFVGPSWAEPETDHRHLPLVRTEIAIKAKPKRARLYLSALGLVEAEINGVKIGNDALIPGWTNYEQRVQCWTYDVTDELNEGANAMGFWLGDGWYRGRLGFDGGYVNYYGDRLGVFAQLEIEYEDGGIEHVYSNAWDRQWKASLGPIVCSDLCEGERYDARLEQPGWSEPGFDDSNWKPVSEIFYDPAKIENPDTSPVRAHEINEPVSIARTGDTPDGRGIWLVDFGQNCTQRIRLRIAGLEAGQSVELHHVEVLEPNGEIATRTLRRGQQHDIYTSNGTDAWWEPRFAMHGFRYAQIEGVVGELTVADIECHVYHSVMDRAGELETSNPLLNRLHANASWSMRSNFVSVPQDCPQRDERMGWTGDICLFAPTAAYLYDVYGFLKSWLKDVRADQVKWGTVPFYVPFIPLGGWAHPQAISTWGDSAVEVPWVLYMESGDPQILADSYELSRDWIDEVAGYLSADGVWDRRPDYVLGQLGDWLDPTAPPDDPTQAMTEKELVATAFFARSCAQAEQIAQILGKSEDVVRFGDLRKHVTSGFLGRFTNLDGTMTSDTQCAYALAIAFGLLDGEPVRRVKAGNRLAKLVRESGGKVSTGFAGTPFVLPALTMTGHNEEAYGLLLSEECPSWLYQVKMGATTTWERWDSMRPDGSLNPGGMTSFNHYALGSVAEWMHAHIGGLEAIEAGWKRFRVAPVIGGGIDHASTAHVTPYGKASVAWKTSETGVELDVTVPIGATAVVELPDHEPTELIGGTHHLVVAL

[1] = system: T2, C118 (GST-C118), alpha-L-rhamnosidase; assay: product (Rg1) quantified, Michaelis-Menten fit; assay type: biochemical, Bifidobacterium sp.; conditions: pH 6.0, 45 °C; Re 0.25-10.0 mg/mL; enzyme 0.62 mg/mL
T2 construct: E. coli BL21(DE3); GH78 subfamily II; EC 3.2.1.40; predicted catalytic residues Glu478, Asp472, also W541, W600, L597, W532
Source text: product (Rg1) quantified, Michaelis-Menten fit on C118 (GST-C118), alpha-L-rhamnosidase

[2] = system: T2, C118 (GST-C118), alpha-L-rhamnosidase; assay: p-nitrophenol release, Michaelis-Menten fit; assay type: biochemical, Bifidobacterium sp.; conditions: pH 6.0, 45 °C; pNPR 0.1-5.0 mM; enzyme 0.62 mg/mL
Source text: p-nitrophenol release, Michaelis-Menten fit on C118 (GST-C118), alpha-L-rhamnosidase

With CC(C)=CCC[C@](C)(O[C@@H]1O[C@H](CO)[C@@H](O)[C@H](O)[C@H]1O)[C@H]1CC[C@]2(C)[C@@H]1[C@H](O)C[C@@H]1[C@@]3(C)CC[C@H](O)C(C)(C)[C@@H]3[C@@H](O[C@@H]3O[C@H](CO)[C@@H](O)[C@H](O)[C@H]3O[C@@H]3O[C@@H](C)[C@H](O)[C@@H](O)[C@H]3O)C[C@]12C [Ginsenoside Re] the “% conversion after 12 h” value (BD890 (Bd890, BdRham)) was 54% and the Km [1] was 544 µM.
In the case of C[C@@H]1O[C@@H](Oc2ccc([N+](=O)[O-])cc2)[C@H](O)[C@H](O)[C@H]1O [p-nitrophenyl-α-L-rhamnopyranoside], the Km [2] is reported as 2030 µM.
